Reference: patent publication US7595395B2, “Gabaergic agents to treat memory deficits” (priority 2005, dated 2009)
pKi: −log10 of the molar value.

Experiments:
C57B1/6 mice = experiment: Audio cued fear conditioning; assay type: in vivo; conditions: scopolamine impairment
Description: Further, animal data for FIGS. 22-26 were obtained using experimental methodologies described in a previously published reference, Influence of benzodiazepine binding site ligands on fear-conditioned contextual memory European journal of Pharmacology, Volume 426, Issues 1-2, 24 Aug. 2001, Pages 45-54, Timothy M. DeLorey, Richard C. Lin, Brian McBrady, Xiaohui He, James M. Cook, Jelveh Lameh and Gilda H. Loew, which is incorporated by reference as if fully set forth here in its entirety. Selected sections of the reference are provided below:
Male C57B1/6 mice were obtained from Charles Rivers Laboratories (Holister, Calif.) at 6 weeks of age. […] All animal protocols used in this study conform to the guidelines determined by the National Institute of Health (USA) Office for Protection from Research Risks and are approved by the Animal Care and Use Committee of the Palo Alto Veterans Administration Medical Center, Palo, Alto, Calif. […]
Before testing each day, the mice were moved to a holding room and allowed to acclimate for at least 30 min. […] Twenty-four hours later, contextual memory was assessed by placing the mice back into the freshly rescented (0.3% Ammonium hydroxide) conditioning chambers in which they were trained, for a 4-min test period in the absence of footshock. […] Data were analyzed by one-way analysis of variance(ANOVA) using GraphPad PRISM 2.01 (GraphPad Software). […]

[1] = biological target: T1, α5β3γ2 benzodiazepine receptor GABA(A) isoform (UniProt P18507+P31644); experiment: Radioligand competition binding, α5β3γ2 BzR/GABA(A) isoform; set-up: Ki α5; other: text; HEK-T cells (Roth et al.); species or system human and rat; conditions: read-out: Ki α5; HEK-T cells (Roth et al.)
T1 sequence (P18507 1-475): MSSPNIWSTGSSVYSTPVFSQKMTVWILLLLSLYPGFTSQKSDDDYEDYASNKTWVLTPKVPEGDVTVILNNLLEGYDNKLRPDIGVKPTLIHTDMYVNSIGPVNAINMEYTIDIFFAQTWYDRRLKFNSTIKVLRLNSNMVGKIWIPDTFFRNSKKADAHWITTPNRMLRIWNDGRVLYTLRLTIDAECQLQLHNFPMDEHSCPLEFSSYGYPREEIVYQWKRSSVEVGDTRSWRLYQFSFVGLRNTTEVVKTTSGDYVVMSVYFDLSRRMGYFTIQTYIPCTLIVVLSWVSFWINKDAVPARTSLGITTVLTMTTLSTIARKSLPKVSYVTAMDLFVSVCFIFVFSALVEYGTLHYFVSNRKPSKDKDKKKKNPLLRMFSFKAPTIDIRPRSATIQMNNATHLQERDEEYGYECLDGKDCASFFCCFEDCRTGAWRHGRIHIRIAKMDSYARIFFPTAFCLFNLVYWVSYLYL
T1 sequence (P31644 1-462): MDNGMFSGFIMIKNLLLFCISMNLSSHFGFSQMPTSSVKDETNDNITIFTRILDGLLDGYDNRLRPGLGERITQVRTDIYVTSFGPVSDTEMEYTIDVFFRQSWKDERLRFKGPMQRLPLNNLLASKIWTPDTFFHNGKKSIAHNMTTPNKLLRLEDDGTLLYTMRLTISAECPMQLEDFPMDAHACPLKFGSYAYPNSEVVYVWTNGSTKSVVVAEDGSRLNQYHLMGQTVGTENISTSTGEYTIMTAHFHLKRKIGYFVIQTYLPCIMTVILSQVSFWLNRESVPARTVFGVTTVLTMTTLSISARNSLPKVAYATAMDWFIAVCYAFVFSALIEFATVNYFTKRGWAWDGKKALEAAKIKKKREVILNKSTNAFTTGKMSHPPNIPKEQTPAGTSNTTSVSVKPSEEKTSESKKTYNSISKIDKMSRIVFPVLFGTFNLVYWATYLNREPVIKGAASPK

## CCc1ccc2c(c1)C(=O)N(C)Cc1c(C(=O)OCCCOC(=O)c3ncn4c3CN(C)C(=O)c3cc(CC)ccc3-4)ncn1-2 [XLi356, 1,3-Bis(8-ethyl-5,6-dihydro-5-methyl-6-oxo-4H-imidazo[1,5a][1,4]benzodiazepine-3-carboxy)propyl diester]
C57B1/6 mice; listed as XLI356
  audio cued memory / audio cued fear conditioning (in words): not able to reverse this type of memory
C57B1/6 mice; listed as Xli356
  audio cued memory / audio cued fear conditioning (in words): no activity
[1]
  pKi: 6.97
